Patent US12508280B2, “Formulations for improving gut health” (DSM IP ASSETS B.V., priority 2018, dated 2025)

How the values were obtained:
[1] = system: Co-cultures of Caco-2 and HT29-MTX-E12 cells; assay: Barrier integrity (TEER), healthy gut model; assay type: cell-based; settings: 48 h minus 0 h fermentation samples, vs corresponding control
Procedure: (§5) Co-cultures of Caco-2 and HT29-MTX-E12 cells were used to assess the protective effect of the supernatants before (0 h) and after fermentation (48 h) for both sets of in vitro experiments above.
(§6) CaCo-2 ECACC 86010202 and HT29-MTX-E12 ECACC 12040401 cells (both from European Collection of Cell Cultures, Salisbury, UK) were both cultured at 37° C., in atmosphere of 5% CO2 in DMEM medium supplemented with 4.5 g/L D-Glucose, 4 mM L-Glutamine, 1 mM Sodium Pyruvate, 1% MEM Non-Essential Amino Acids, 50 μg/mL Gentamicin (Life Technologies Europe B.V., Zug, Switzerland) and 10% heat-inactivated FBS (Sigma-Aldrich, Buchs, Switzerland). Sub-confluent cells were trypsinized using 0.25% Trypsin/EDTA (Life Technologies Europe B.V., Zug, Switzerland) and passaged at a ratio of 1:5-1:10 twice a week. Cells between passages 55 and 85 were used for this study.
(§7) Cells were seeded at a density of 20000 cells/well in a 7:3 ratio (Caco-2:HT29-MTX-E12) in Corning HTS Transwell-24 system PET membranes, 0.4 μM pore size, cell growth area 0.33 cm2/well (Corning BV, Amsterdam, Netherlands) and cultured as described above. Media was changed every second to third day.
For both sets of in vitro experiments, after cells being 13 days in culture, initial transepithelial electrical resistance (TEER) readings were obtained using an EVOM2 Voltohmmeter (EVOM, World Precision Instruments, Berlin) equipped with STX100 Electrodes. TEER values correlate with the tightness of the confluent monolayer (Srinivasan et al. 2015).
The background TEER (insert) was subtracted from total TEER (cell monolayer plus insert) to yield the monolayer resistance and then normalized to surface area by multiplying with the area of the insert (Srinivasan et al. 2015). The integrity of the monolayer was determined at basal level by measuring TEER. A TEER of 300 Ωcm2 was regarded as a tight monolayer (see results section). Afterwards, the cells were treated with sterile filtered fermentation supernatants or fermentation medium as a control (diluted 1:20 in growth media). After 24 h incubation the resistance across each cell monolayer was measured again and the percentage change in TEER compared to initial TEER for each insert was calculated to represent a healthy gut model. All TEER measurements were done by placing the plates containing the inserts on a 37° C. warming plate and were performed in the same duration.

[2] = system: fecal suspension from the selected donor; assay: Intestinal batch fermentation, SCFA production (first set); assay type: cell-based, human; settings: 5× dose; after 48 h fermentation; vs corresponding control
Procedure: In a first set of in vitro experiments at the start of intestinal batch fermentation incubation, all test ingredients were added from stock solutions to the modified nutritional medium, containing (g/l): 2.5 K2HPO4, 10.9 KH2PO4, 2 NaHCO3, 2 yeast extract, 2 peptone, 1 mucin, 0.5 cysteine, 2 Tween 80, 2 glucose, 2 starch, 2 cellobiose, 0.1 NaCl, 0.01 MgSO4·7H2O, 0.01 CaCl2·6H2O, 0.05 hemin, 0.5 bile salts.
The other compounds were prepared in ethanol: • Vitamin K1 (VK1), • MEG-3 0080 EE Oil (MEG-3 0080 EE), • MEG-3 4535 EE Oil (MEG-3 4535 EE), • MEG-3 8000 EE Oil (MEG-3 8000 EE).
(§1) Since ethanol is known to have antimicrobial effects, two blanks for each type of stock solution were included. As a source of the microbial community, a freshly prepared fecal suspension from the selected donor was added to the reactors. […] All tests, except the blanks, were performed in single repetition, resulting in 40 independent incubations, as specified in Table 1. Incubation conditions of the pre-screening experiment and the final experiment were 48 h at 37° C., under shaking (90 rpm) and anaerobic conditions. DNA were extracted from effluent samples collected from each fermentation flask before (0 h fermentation) and after fermentation (24 h fermentation) and use for microbiome composition analysis by Shotgun sequencing. Effluent samples were collected from each fermentation flask before (0 h fermentation) and after fermentation (48 h fermentation), sterilized by filtering through 0.22 μm filters and used for short chain fatty acids (SCFA), quantification of immunological biomarkers and in vitro analysis in cell culture systems.
Short chain fatty acids (SCFA) are an assessment of the microbial carbohydrate metabolism (acetate, propionate and butyrate) or protein metabolism (branched SCFA) and can be compared to typical fermentation patterns for normal GI microbiota. Samples for SCFA analysis were analyzed after 0, 6, 24 and 48 h of incubation for both set of in vitro experiments, above.
SCFA were extracted from the samples with diethyl ether, after the addition of 2-methyl hexanoic acid as an internal standard. Extracts were analysed using a GC-2014 gas chromatograph (Shimadzu's-Hertogenbosch, the Nether-lands), equipped with a capillary fatty acid-free EC-1000Econo-Cap column (dimensions: […]×0.53 mm, film thickness […]; Alltech, Laarne, Belgium), a flame ionization detector and a split injector. The injection volume was […] and the temperature profile was set from 110 to 160° C., with a temperature increase of 6° C. min-1. The carrier gas was nitrogen and the temperature of the injector and detector were […] and 220° C., respectively. The production of unbranched and branched SCFA was calculated by summing the molar concentrations of acetate, propionate, butyrate, valerate and caproate, and summing isobutyrate, isovalerate and isocaproate molar concentrations, respectively. The total SCFA production was defined as the sum of unbranched and branched SCFA.

[3] = system: Co-cultures of Caco-2 and HT29-MTX-E12 cells; assay: Barrier integrity, leaky gut model, apical stressor Rhamnolipids; assay type: cell-based; settings: vs corresponding control; for Lucifer yellow, apical induction of leaky gut cellular model: 48 h fermentation samples; for TEER, apical induction of leaky gut cellular model: 48 h minus 0 h fermentation samples
Procedure: Since ethanol is known to have antimicrobial effects, two blanks for each type of stock solution were included. As a source of the microbial community, a freshly prepared fecal suspension from the selected donor was added to the reactors. […] All tests, except the blanks, were performed in single repetition, resulting in 40 independent incubations, as specified in Table 1. Incubation conditions of the pre-screening experiment and the final experiment were 48 h at 37° C., under shaking (90 rpm) and anaerobic conditions. […] Effluent samples were collected from each fermentation flask before (0 h fermentation) and after fermentation (48 h fermentation), sterilized by filtering through 0.22 μm filters and used for short chain fatty acids (SCFA), quantification of immunological biomarkers and in vitro analysis in cell culture systems.
as §5, §6, §7
For both sets of in vitro experiments, the integrity of cell monolayers after the stressor test was evaluated by both TEER values and by measuring the transport of Lucifer yellow from apical to basolateral compartments (Leaky gut model). A prewarmed HBSS transport buffer composed of Hank's Balanced Salt Solution pH 7.4 with Ca2+ and Mg2+, containing 5.5 mM D-(+)-glucose, Sodium Bicarbonate, and supplemented with 4 mM L-glutamine, 20 mM HEPES (Life Technologies Europe B.V., Zug, Switzerland) was used for all permeability experiments. The inserts were rinsed twice with HBSS using a reservoir tray, 100 μl HBSS were then added to the apical site of the inserts and subsequently moved to new wells with fresh HBSS and allowed to equilibrate at 37° C. for 60 min in the incubator followed by TEER measurement to obtain baseline resistance readings.
Lucifer Yellow CH dilithium salt (Sigma-Aldrich, Buchs, Switzerland) was dissolved in HBSS at a final concentration of 100 μg/ml. Basolateral stressor EtOH (Merck, KgaA, Darmstadt, Germany) was diluted to 5% in HBSS. Apical Stressor Rhamnolipids R90 (AGAE Technologies, Corvallis, USA) was dissolved in HBSS containing Lucifer Yellow at a final concentration of 350 μg/ml. All solutions were prepared freshly each time.
The HBSS transport buffer from the basolateral chamber was aspirated first, then the HBSS from the apical chamber and replaced with Lucifer yellow solution. For the apical stressor test, Lucifer yellow solution containing 350 μg/ml Rhamnolipids or Lucifer yellow solution without stressor for the control wells was loaded into the apical compartment, blank HBSS was subsequently added to the basolateral chamber.

Bifidobacterium = assay: Microbiome composition by shotgun sequencing: Bifidobacterium (first set); assay type: cell-based, human; settings: after 24 h fermentation, vs corresponding control
Procedure: as §1
(§2) For the first set of in vitro experiments, total DNA was extracted from all samples collected throughout the study using the QIAamp DNA stool minikit (Qiagen, Crawley, United Kingdom) according to the manufacturer's instructions, apart from addition of a bead-beating step and increasing the lysis temperature to 95° C. as described previously (McCormack et al., 2018).
(§3) After DNA isolation, DNA was quantified using the Qubit High Sensitivity DNA assay (Thermo Fisher). Whole metagenome libraries were then prepared using the Illumina Nextera XT kit (Illumina) in accordance with the manufacturer's instructions, with the following modifications: Firstly, tagmentation time was increased to 7 min and secondly, following incorporation of indices and Ampure purification of the products, the samples were each individually sized by running on an Agilent High Sensitivity Chip (Agilent) and quantified using the Qubit High Sensitivity DNA assay (Thermo Fisher) in accordance with Teagasc Sequencing Platform SOPs. The samples were then pooled equimolarly and sequenced on the Illumina NextSeq 500 with a NextSeq 500/550 v2 high-output reagent kit (300 cycles). All sequencing was done in the Teagasc sequencing facility in accordance with standard Illumina sequencing protocols.
(§4) Delivered raw FASTQ sequence files were quality checked as follows: poor quality and duplicate read removal, as well as trimming was implemented using a combination of SAM and Picard tools. Taxonomy was assigned to the reads using the Kraken software and functional analysis was performed with Super focus.

HT29 cells = assay: HT29 cell culture, quantification of immunological biomarkers; assay type: cell-based; settings: 5× dose; effluent from 24 h fermentation; vs corresponding control
Procedure: as §1, with “([…]), […]” for “(0 h fermentation) and after fermentation (48 h fermentation), sterilized by filtering through 0.22 μm filters and used for short chain fatty acids (SCFA), quantification of immunological biomarkers and in vitro analysis in”
For both sets of in vitro experiments, HT29 cells were obtained from American Type Culture Collection (Manassas, VA). Cells were cultured in DMEM supplemented with 10% fetal bovine serum (FBS), 50 units/ml penicillin, 50 μg/ml streptomycin, L-glutamine, and nonessential amino acids (Life Technologies Europe B.V., Zug, Switzerland). Cells were seeded into 12-well plates at 8×10^5 cells per well and used after 2 days of preculture. They were starved in DMEM containing 0.25% FBS for 18 h before treatment. Cells were treated for 24 hours with TNF-α at 100 ng/mL or fermentation supernatants which were sterile filtered and diluted 1:20 in DMEM containing 0.25% FBS. All treatments were done in triplicate. Consequently, cytokines, chemokines and interleukins were quantified in HT29 supernatants using the Luminex Technology (LiquiChip Workstation IS 200, Qiagen, Hilden, Germany) with Bio-Plex Pro Human Cytokine Panel kits (Bio-Rad, Hercules, CA) or with Luminex Screening Assay kits (R&D Systems, Inc., Minneapolis, MN), following the manufacturer's instructions. The data were acquired with the Luminex IS 2.3 software and evaluated with the LiquiChip Analyser software (Qiagen, Hilden, Germany).

[4] = system: genes involved in Acetyl-CoA fermentation to Butyrate pathway; assay: Shotgun sequencing functional analysis: butyrate pathway genes (first set); assay type: cell-based, human; settings: after 24 h fermentation, vs corresponding control
Procedure: as §1, §2, §3, §4

[5] = system: fecal microbial community; assay: Microbiome composition by shotgun sequencing: alpha diversity (first set); assay type: cell-based, human; settings: after 24 h fermentation, vs corresponding control
Procedure: as §1, §2, §3, §4

[6] = system: fecal suspension from the selected donor; assay: Gas production in closed colon incubations (first set); assay type: cell-based, human; settings: after 48 h fermentation, vs corresponding control
Procedure: The colon incubations were performed in closed incubation systems. This allowed us to evaluate the accumulation of gasses in the headspace, which can be measured with a pressure meter. Gas production is a measure of microbial activity, and thus of the speed of fermentation of the potentially prebiotic substrates. It can be used as an indication for bloating and digestive wellbeing upon prebiotic consumption.
as §1
For both sets of in vitro experiments, colon incubations were performed in closed incubation systems as described above. This allowed to evaluate the accumulation of gasses in the headspace, which can be measured with a pressure meter. Gas production is a measure of microbial activity, and thus of the speed of fermentation of the potentially prebiotic substrates

| Structure (SMILES) | TEER, healthy gut cellular model ([1]; 0.2× dose) | butyrate production [2] | Lucifer yellow, apical induction of leaky gut cellular model ([3]; 0.2× dose) | TEER, apical induction of leaky gut cellular model ([3]; 0.2× dose) | Bifidobacterium relative abundance (Bifidobacterium; 0.2× dose) | Bifidobacterium relative abundance (Bifidobacterium; 1× dose) | IL-8 production by HT29 cells (HT29 cells) | relative abundance of genes involved in Acetyl-CoA fermentation to Butyrate pathway ([4]; 0.2× dose) | relative abundance of genes involved in Acetyl-CoA fermentation to Butyrate pathway ([4]; 1× dose) | microbiome alpha diversity (Shannon diversity index) ([5]; 0.2× dose) | microbiome alpha diversity (Shannon diversity index) ([5]; 1× dose) | TEER, healthy gut cellular model ([1]; 1× dose) | Lucifer yellow, apical induction of leaky gut cellular model ([3]; 1× dose) | TEER, apical induction of leaky gut cellular model ([3]; 1× dose) | gas production ([6]; 1× dose) | gas production ([6]; 5× dose) | relative abundance of genes involved in Acetyl-CoA fermentation to Butyrate pathway ([4]; 5× dose) | microbiome alpha diversity (Shannon diversity index) ([5]; 5× dose) |
| --- | --- | --- | --- | --- | --- | --- | --- | --- | --- | --- | --- | --- | --- | --- | --- | --- | --- | --- |
| Cc1cc2nc3c(=O)[nH]c(=O)nc-3n(C[C@H](O)[C@H](O)[C@H](O)COP(=O)(O)O)c2cc1C [Vitamin B2-5-phosphate, Riboflavin-5-phosphate] | increase TEER | increase butyrate production | decrease Lucifer yellow | increase TEER | increase Bifidobacterium relative abundance | increase Bifidobacterium relative abundance | increase IL-8 production | increase relative abundance | increase relative abundance | increase microbiome diversity | increase microbiome diversity |  |  |  |  |  |  |  |
| O=C1O[C@H]([C@@H](O)CO)C(O)=C1O [Vitamin C, Ascorbic acid] |  |  | decrease Lucifer yellow | increase TEER |  | increase Bifidobacterium relative abundance |  |  |  |  |  | increase TEER | decrease Lucifer yellow | increase TEER | reduced gas production | reduced gas production | increase relative abundance | increase microbiome diversity |
